In ChEMBL document CHEMBL1150976, “The selectivity of protein kinase inhibitors: a further update” (Biochem J, 2007):
Values belong to the compound of their own block, whether it stands above or below them.

Legend:
[1] = biological target: T1, Aurora kinase C (Homo sapiens) (UniProt Q9UQB9); assay: Percentage Aurora C activity remaining in the presence of 3uM inhibitor
T1 sequence (whole entry): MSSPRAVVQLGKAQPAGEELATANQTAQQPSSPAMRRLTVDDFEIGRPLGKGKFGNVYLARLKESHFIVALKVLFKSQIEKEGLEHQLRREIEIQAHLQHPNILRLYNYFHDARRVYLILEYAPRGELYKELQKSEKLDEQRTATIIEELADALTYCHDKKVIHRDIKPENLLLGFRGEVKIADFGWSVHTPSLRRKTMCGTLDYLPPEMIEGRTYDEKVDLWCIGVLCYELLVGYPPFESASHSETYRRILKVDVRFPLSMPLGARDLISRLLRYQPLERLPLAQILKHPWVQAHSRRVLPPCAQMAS

[2] = biological target: T2, Serine/threonine-protein kinase BRSK2 (Homo sapiens) (UniProt Q8IWQ3); assay: Percentage BRSK2 activity remaining in the presence of 3uM inhibitor
T2 sequence (whole entry): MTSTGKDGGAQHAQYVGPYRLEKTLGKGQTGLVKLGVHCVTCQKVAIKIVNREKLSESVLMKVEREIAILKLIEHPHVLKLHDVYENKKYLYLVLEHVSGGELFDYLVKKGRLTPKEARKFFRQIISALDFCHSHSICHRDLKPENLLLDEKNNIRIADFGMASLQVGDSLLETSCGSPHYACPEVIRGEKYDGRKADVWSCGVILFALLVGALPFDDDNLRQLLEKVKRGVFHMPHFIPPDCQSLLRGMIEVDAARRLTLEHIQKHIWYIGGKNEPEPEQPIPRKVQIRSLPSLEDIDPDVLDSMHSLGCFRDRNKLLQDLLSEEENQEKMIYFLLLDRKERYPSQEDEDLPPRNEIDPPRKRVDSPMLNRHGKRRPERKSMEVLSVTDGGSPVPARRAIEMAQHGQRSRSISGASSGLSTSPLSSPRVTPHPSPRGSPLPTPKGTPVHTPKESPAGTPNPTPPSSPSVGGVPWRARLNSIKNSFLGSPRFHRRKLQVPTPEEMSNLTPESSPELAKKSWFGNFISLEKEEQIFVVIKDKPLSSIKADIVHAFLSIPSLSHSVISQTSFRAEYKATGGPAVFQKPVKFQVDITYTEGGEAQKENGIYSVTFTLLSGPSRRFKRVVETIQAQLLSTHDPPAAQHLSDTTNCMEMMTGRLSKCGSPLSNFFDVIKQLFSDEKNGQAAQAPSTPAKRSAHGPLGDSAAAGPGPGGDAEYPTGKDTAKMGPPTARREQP

[3] = biological target: T3, Casein kinase II (Homo sapiens) (UniProt P67870+P68400+P19784); assay: Percentage CK2 activity remaining in the presence of 3uM inhibitor; format: protein-complex assay
[4] = biological target: Proto-oncogene tyrosine-protein kinase Src (Gallus gallus) (UniProt P00523); assay: Percentage Src activity remaining in the presence of 3uM inhibitor; settings: filed as antagonist
[5] = biological target: Serine/threonine-protein kinase pim-2 (Homo sapiens, UniProt Q9P1W9); assay: Percentage PIM2 activity remaining in the presence of 3uM inhibitor
Serine/threonine-protein kinase pim-2, sequence (Q9P1W9 whole entry, looked up): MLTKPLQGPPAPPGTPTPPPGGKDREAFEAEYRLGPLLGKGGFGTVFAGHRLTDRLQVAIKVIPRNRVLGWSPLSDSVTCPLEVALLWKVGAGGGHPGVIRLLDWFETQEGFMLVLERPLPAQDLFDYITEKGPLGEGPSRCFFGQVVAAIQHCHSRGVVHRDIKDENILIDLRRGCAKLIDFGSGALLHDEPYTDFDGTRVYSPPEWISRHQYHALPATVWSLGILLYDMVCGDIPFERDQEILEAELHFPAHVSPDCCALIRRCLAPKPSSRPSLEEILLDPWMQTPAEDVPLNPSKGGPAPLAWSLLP

[6] = biological target: T4, Mitogen-activated protein kinase 14 (Homo sapiens, UniProt Q16539); assay: Percentage p38alpha activity remaining in the presence of 3uM inhibitor
T4 sequence (Q16539 whole entry): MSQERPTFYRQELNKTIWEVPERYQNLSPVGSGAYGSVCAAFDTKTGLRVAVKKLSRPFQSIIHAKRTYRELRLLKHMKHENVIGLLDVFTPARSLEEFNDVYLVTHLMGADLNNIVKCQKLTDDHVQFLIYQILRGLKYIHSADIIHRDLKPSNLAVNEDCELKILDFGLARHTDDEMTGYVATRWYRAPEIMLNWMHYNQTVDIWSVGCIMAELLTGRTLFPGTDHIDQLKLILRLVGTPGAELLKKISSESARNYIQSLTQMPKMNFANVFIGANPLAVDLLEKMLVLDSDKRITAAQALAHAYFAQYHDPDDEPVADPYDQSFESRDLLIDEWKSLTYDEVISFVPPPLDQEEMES

[7] = biological target: Dual specificity mitogen-activated protein kinase kinase 1 (Homo sapiens) (UniProt Q02750); assay: Percentage MKK1 activity remaining in the presence of 3uM inhibitor
Dual specificity mitogen-activated protein kinase kinase 1 (Homo sapiens), sequence (Q02750 whole entry): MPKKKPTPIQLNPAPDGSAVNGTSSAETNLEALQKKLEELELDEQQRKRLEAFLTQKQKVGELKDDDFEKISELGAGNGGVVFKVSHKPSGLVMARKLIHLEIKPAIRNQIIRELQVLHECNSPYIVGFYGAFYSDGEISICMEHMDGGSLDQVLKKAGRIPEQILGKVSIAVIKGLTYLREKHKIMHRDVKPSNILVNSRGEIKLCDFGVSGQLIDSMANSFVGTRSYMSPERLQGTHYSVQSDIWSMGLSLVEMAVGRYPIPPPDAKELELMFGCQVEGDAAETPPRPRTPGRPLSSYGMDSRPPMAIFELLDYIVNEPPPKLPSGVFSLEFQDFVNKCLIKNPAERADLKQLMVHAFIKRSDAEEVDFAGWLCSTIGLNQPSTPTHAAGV

[8] = biological target: Myosin light chain kinase, smooth muscle (Homo sapiens, UniProt Q15746); assay: Percentage SmMLCK activity remaining in the presence of 3uM inhibitor
[9] = biological target: Glycogen synthase kinase-3 beta (Homo sapiens, UniProt P49841); assay: Percentage GSK3-beta activity remaining in the presence of 3uM inhibitor
Glycogen synthase kinase-3 beta, sequence (P49841 whole entry, looked up): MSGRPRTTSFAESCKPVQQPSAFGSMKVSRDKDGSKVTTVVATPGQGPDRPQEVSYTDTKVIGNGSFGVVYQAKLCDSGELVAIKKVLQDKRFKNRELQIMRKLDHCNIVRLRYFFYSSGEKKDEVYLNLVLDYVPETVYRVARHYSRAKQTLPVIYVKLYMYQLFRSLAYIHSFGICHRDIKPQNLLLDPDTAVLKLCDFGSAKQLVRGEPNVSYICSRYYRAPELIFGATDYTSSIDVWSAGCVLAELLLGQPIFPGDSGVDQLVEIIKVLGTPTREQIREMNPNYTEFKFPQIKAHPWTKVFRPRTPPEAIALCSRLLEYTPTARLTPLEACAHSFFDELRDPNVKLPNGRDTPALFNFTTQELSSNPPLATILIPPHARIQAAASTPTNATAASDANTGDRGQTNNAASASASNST

[10] = biological target: T5, Serine/threonine-protein kinase 3 (Homo sapiens) (UniProt Q13188); assay: Percentage MST2 activity remaining in the presence of 3uM inhibitor
T5 sequence (whole entry): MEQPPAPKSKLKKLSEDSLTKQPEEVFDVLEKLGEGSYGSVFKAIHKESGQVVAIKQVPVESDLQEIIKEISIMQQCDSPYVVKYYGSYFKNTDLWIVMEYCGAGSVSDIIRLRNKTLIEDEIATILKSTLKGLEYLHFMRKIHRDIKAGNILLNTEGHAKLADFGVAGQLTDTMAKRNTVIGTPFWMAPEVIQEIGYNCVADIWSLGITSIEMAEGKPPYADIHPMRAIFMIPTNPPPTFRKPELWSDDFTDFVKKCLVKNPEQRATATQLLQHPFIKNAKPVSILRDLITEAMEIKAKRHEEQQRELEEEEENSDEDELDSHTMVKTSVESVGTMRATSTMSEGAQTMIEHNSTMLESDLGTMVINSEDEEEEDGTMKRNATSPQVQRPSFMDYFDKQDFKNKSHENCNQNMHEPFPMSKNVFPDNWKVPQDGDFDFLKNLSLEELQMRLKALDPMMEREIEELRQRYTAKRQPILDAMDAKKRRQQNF

[11] = biological target: Mitogen-activated protein kinase 8 (Homo sapiens, UniProt P45983); assay: Percentage JNK1 activity remaining in the presence of 2uM inhibitor
Mitogen-activated protein kinase 8, sequence (P45983 whole entry): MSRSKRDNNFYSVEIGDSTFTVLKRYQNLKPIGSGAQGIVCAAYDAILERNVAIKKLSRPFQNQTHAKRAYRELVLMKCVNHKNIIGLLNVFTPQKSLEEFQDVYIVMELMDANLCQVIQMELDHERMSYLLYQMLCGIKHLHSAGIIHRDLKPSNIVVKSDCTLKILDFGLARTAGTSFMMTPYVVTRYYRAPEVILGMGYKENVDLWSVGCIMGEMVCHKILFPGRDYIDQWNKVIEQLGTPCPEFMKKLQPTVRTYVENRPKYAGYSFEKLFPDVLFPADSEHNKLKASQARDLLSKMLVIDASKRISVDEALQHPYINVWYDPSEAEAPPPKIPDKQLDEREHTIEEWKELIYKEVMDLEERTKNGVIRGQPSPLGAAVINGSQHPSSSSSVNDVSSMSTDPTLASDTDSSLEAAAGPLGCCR

[12] = biological target: SRSF protein kinase 1 (Homo sapiens) (UniProt Q96SB4); assay: Percentage SRPK1 activity remaining in the presence of 2uM inhibitor; settings: filed as antagonist
SRSF protein kinase 1 (Homo sapiens), sequence (Q96SB4 whole entry): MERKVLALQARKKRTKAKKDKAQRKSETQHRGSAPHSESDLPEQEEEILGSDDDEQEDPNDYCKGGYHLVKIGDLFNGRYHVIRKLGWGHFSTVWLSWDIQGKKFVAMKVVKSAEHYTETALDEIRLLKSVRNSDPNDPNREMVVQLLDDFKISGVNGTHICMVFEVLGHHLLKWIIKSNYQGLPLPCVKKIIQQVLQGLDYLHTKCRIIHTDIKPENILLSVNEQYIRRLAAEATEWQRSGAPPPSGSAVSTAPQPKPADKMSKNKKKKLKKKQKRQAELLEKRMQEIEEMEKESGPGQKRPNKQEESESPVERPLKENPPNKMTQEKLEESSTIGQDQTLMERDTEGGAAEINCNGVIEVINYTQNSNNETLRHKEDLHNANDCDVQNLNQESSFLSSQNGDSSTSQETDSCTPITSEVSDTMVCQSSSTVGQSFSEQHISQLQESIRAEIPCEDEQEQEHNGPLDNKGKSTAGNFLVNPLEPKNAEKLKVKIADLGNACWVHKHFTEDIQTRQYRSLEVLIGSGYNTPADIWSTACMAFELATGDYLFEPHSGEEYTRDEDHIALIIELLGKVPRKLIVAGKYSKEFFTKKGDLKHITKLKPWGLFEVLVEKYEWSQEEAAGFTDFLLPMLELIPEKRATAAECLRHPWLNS

[13] = biological target: T4, Mitogen-activated protein kinase 14; assay: Percentage p38alpha activity remaining in the presence of 2uM inhibitor
[14] = biological target: T3, Casein kinase II (Homo sapiens); assay: Percentage CK2 activity remaining in the presence of 2uM inhibitor; format: protein-complex assay
[15] = biological target: Homeodomain-interacting protein kinase 3 (Homo sapiens) (UniProt Q9H422); assay: Percentage HIPK3 activity remaining in the presence of 2uM inhibitor; settings: filed as antagonist
Homeodomain-interacting protein kinase 3 (Homo sapiens), sequence (Q9H422 whole entry, looked up): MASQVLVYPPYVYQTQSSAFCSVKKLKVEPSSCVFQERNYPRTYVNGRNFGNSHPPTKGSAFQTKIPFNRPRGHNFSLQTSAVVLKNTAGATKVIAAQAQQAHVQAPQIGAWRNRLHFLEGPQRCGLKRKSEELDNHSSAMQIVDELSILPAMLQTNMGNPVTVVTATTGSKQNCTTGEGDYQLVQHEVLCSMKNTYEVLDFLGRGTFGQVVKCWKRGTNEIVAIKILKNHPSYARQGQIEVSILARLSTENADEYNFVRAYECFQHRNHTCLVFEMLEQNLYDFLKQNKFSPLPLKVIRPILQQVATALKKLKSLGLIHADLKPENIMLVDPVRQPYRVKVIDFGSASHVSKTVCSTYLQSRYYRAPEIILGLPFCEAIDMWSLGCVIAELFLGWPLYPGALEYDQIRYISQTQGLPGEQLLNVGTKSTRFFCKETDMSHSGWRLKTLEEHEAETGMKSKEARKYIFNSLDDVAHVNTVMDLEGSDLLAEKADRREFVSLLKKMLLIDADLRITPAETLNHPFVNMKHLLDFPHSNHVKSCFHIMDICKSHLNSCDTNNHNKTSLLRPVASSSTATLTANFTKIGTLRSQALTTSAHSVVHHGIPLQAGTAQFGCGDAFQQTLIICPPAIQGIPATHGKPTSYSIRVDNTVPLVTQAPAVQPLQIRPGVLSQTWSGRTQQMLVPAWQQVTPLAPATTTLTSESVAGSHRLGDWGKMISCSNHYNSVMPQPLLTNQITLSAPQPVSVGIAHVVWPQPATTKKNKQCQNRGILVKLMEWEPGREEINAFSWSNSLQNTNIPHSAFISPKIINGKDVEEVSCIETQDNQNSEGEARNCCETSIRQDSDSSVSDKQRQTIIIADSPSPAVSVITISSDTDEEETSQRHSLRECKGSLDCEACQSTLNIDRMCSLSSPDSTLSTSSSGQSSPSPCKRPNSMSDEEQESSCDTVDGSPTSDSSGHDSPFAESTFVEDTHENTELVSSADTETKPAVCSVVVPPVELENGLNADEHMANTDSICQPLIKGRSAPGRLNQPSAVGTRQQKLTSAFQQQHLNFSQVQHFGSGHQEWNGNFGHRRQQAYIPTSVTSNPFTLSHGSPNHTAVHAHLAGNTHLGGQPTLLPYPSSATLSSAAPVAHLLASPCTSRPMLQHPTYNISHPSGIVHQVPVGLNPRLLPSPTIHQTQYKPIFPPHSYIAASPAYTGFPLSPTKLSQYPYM

[16] = biological target: RAC-beta serine/threonine-protein kinase (Homo sapiens) (UniProt P31751); assay: Percentage PKBbeta activity remaining in the presence of 2uM inhibitor
RAC-beta serine/threonine-protein kinase (Homo sapiens), sequence (P31751 whole entry): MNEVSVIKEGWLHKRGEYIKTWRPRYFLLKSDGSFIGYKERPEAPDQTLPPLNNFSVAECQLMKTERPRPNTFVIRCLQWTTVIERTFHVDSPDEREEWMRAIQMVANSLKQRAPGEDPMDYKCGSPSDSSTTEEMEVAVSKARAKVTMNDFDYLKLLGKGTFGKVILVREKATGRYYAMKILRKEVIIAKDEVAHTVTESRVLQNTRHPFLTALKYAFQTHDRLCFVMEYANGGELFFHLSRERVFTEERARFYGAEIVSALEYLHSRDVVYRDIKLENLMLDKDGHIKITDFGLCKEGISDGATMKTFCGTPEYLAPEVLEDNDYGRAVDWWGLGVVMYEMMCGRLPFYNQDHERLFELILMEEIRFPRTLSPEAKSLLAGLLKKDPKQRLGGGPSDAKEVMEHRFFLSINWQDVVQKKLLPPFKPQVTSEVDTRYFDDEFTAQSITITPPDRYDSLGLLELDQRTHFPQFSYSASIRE

[17] = biological target: Serine/threonine-protein kinase Nek6 (Homo sapiens) (UniProt Q9HC98); assay: Percentage NEK6 activity remaining in the presence of 2uM inhibitor
Serine/threonine-protein kinase Nek6 (Homo sapiens), sequence (Q9HC98 whole entry): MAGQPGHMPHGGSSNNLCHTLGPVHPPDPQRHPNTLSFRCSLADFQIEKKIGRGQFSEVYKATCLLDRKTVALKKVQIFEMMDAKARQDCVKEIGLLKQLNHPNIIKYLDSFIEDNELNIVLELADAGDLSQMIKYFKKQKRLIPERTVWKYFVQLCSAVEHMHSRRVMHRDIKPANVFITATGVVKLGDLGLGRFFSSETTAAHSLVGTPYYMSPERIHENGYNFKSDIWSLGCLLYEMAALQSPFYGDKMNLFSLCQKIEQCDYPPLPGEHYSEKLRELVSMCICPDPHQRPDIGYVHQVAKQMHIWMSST

[18] = biological target: Cyclin-dependent kinase 2/cyclin A (Homo sapiens, UniProt P24941); assay: Inhibition of CDK2-cyclinA in the presence of 20uM ATP; format: protein-complex assay
[19] = biological target: Mitogen-activated protein kinase 9 (Homo sapiens, UniProt P45984); assay: Percentage JNK2 activity remaining in the presence of 25uM inhibitor
Mitogen-activated protein kinase 9, sequence (P45984 whole entry, looked up): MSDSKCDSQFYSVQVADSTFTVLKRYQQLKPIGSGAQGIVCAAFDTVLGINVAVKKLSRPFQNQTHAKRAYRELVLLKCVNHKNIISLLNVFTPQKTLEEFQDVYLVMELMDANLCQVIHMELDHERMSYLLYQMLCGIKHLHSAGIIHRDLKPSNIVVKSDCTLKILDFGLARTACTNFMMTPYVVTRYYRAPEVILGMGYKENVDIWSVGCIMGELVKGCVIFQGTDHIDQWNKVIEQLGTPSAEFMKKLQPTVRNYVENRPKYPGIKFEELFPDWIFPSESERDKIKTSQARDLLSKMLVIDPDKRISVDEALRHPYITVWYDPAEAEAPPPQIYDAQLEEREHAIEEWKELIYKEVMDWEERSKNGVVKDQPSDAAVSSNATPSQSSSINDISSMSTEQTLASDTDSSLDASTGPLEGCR

Activity [1]: 75%
Activity [2]: 53%
Activity [3]: 92%
Activity [4]: 10%
Activity [5]: 85%
Activity [6]: 72%
Activity [7]: 80%
Activity [8]: 82%
Activity [9]: 65%
Activity [10]: 76%
Compound: Cc1ccc(-c2c(C(=O)CF)n(CCCO)c3ncnc(N)c23)cc1

Activity [11]: 106%
Activity [12]: 16%
Activity [13]: 77%
Activity [14]: 89%
Activity [15]: 41%
Activity [16]: 96%
Activity [17]: 74%
Compound: Cn1cc(C2=C(c3ccc(Cl)cc3Cl)C(=O)NC2=O)c2ccccc21

Compound: CC(C)[C@H](CO)Nc1nc(Nc2cccc(Cl)c2)c2ncn(C(C)C)c2n1 [PURVALANOLA]
IC50 [18]: 30 nM (antagonist)

Activity [19]: 87%
Compound: NCCNS(=O)(=O)c1ccc(Cl)c2ccncc12
